The subject of this experiment is Rattus norvegicus. The experiment in a line: Hypoglycemic activity in Rattus norvegicus albino Wistar (rat) streptozotocin-induced diabetic model assessed as reduction of plasma glucose level at 20 mg/kg, po qd for 60 days measured up to 180 min by oral glucose tolerance test. It counts as functional, organism-based. Details: dose 20 mg/kg.

Active and inactive are the calls of the source. No cut-off for these calls is given here.

In the case of `Oc1cc(O)c2c(c1)OC(c1ccc(O)c(O)c1)C(O)C2` (stereo unspecified), the outcome was Active.
